Each block holds one compound with its values, some of them ahead of it.
How the values were obtained:
CD38 = assay: Hydrolase and cyclase activities of human and murine CD38; type: biochemical
Experimental: (§1) The hydrolase activity of CD38 was measured according to a previous report ([de Oliveira et al., 2018]) with minor modifications. CD38 hydrolase activity was measured using 50 μM ε-NAD^+ as a substrate in hydrolase reaction buffer (250 mM sucrose, 40 mM Tris-HCl, pH 7.4). Briefly, cells or tissues were directly homogenized in blank reaction buffer on ice, and recombinant hCD38 was diluted in blank reaction buffer for subsequent assays. The tissue homogenates were centrifuged to collect the supernatant for enzyme assays. The loading volume of enzyme was 4–30 μL, the total volume of the reaction system was 3 mL. To detect enzyme inhibition, except when specified, the ligands were directly dissolved in hydrolase reaction buffer before pH adjustment, after which, the pH was immediately adjusted to 7.4. All reaction buffers, with or without ligands, were freshly prepared before each assay. For measurement of hydrolase activity, 3 mL reaction buffer containing enzyme, ε-NAD^+, and ligands at indicated concentrations was maintained at 37°C with constant stirring.
(§2) The cyclase activity of CD38 was measured as previously described ([Higashida et al., 1999]; [Jin et al., 2007]). CD38 cyclase activity was measured using 60 μM NGD as a substrate in cyclase reaction buffer (100 mM KCl, 10 μM CaCl2, and 50 mM Tris-HCl, pH 6.6). Tissues were cut into pieces and suspended in the buffer (5 mM MgCl2, 10 mM Tris-HCl, pH 7.3) at 4°C for 30 min. Then, the suspension was homogenized on ice, and the supernatant was collected after centrifugation. To collect the crude membrane fractions, the supernatant was centrifuged at 105,000×g for 30 min. The final pellet was resuspended in 10 mM Tris-HCl solution (pH 6.6) for cyclase assay. Homogenates of THP-1 or A549 cells, and recombinant hCD38 were used directly for cyclase assays. The loading volume of enzyme was 4–20 μL, the total volume of reaction system was 3 mL. To detect enzyme inhibition, except when specified, the ligands were directly dissolved in cyclase reaction buffer before pH adjustment, after which, the pH was immediately adjusted to 6.6. All reaction buffers, with or without ligands, were freshly prepared before each assay. For measurement of cyclase activity, 3 mL reaction buffer containing enzyme, NGD, and ligands at indicated concentrations was maintained at 37°C with constant stirring.
(§3) The reaction buffer for hydrolase or cyclase assays was excited at 300 nm, and fluorescence emission was measured every second at 410 nm by Shimazu RF-6000 spectrofluorometer. Hydrolase or cyclase activity was calculated from the linear portion of the time course by fitting a linear function to the data points recorded within 5 min.
Guanosine was dissolved in DMSO and diluted in the reaction buffer for subsequent assays.
For reversibility test, recombinant hCD38 was pre-incubated for 30 min in four conditions: (1) control reaction buffer; (2) in the presence of 100 μM substrate (ε-NAD^+ or NGD); (3) 500 μM sUA; (4) both substrate and sUA. Subsequently, the enzyme was diluted 100-fold in reaction buffer in the presence or absence of 500 μM sUA for activity assays using ε-NAD^+ or NGD. Naïve THP-1 and A549 cells were incubated with RPMI-1640 medium in the presence or absence of 500 μM sUA for 2 hr. The cells were collected and homogenized in the reaction buffer on ice with or without 500 μM sUA, samples were then diluted 100-fold in reaction buffer with or without 500 μM sUA for enzyme assay. Control group was not treated with sUA in all steps; sUA group was treated with sUA in each step; sUA release group was treated with sUA prior to dilution in sUA-free buffer for enzyme assays.

A549 cells = assay: Intracellular NAD+ assay in A549 cells; type: cell-based, human; conditions: sUA 100 to 500 μM, 20 hr
Experimental: A549 cells were seeded in 24-well plates for NAD^+ assay. Briefly, when the confluence reached 80%, the culture medium in each well was discarded, and the cells were washed twice with sterile PBS and incubated in RPMI-1640 medium containing 1% FBS in the presence or absence of sUA (from 100 to 500 μM) for 20 hr. Then, the cells were washed twice with sterile PBS, after the second washing, PBS was completely removed and 100 μL 5% ice-cold perchloric acid (PCA) was added into each well. The plate was kept on ice for 2 hr, then cell samples were collected and centrifuged at 15,000 rpm, 4°C for 10 min. The supernatant was used for subsequent handling and measurement (see LC-MS/MS analysis).
As mentioned above, samples (cells, tissues, blood, or reaction buffer) were treated with ice-cold PCA, after extraction and centrifugation, the collected supernatant was appropriately diluted in 5% ice-cold PCA when applicable, and then was vortexed for 30 s and centrifuged at 15,000 rpm, 4°C for 5 min. […] All the samples after handling were immediately analyzed in this study without freezing and thawing.
The LC-MS/MS system consisted of a triple quadrupole LCMS-8050 (Shimadzu) and an LC-30A system (Shimadzu). […] NAD^+ and NMN were measured independently in this study, as their peaks were hardly separated within a short time.

murine CD38 [1] = target: T1, murine CD38 (Mus musculus, UniProt P56528); assay: CD38 cyclase activity in tissues from WT mice; type: biochemical; conditions: for Ki: WT mice, Figure 1E
T1 construct: from tissue; host or cells: WT ICR mouse tissues (brain, liver, lung, heart, kidney, spleen, ileum, skeletal muscle)
T1 sequence (P56528 1-304): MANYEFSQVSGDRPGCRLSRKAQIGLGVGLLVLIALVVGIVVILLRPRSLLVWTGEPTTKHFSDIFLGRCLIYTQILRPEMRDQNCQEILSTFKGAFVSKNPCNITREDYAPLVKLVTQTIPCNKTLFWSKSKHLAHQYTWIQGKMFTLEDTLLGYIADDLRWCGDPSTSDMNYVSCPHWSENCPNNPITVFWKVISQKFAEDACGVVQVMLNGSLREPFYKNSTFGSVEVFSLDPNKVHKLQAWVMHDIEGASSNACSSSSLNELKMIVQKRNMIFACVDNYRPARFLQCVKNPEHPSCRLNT
Experimental: as §2, §3

murine CD38 [2] = target: T1, murine CD38; assay: CD38 hydrolase activity in tissues from WT mice; type: biochemical; conditions: for Ki: WT mice, Figure 1E
Experimental: as §1, §3

[3] = lung tissues from WT mice, OA 0–5 mM

Effect on hydrolase and cyclase activities of human and murine CD38 (CD38; sUA precursors and metabolite, above physiological levels, Figure 2B, C and supplement 1A–C): hardly inhibited
SMILES: O=c1[nH]cnc2c1ncn2[C@@H]1O[C@H](CO)[C@@H](O)[C@H]1O [Inosine, inosine, reference compound]

Ki (murine CD38 [1]; Brain): 71.1 µM | Ki (murine CD38 [1]; Heart): 70.9 µM | Ki (murine CD38 [1]; Ileum): 72.1 µM | Ki (murine CD38 [1]; Kidney): 78.2 µM | Ki (murine CD38 [1]; Liver): 76.7 µM | Ki (murine CD38 [1]; Lung): 77 µM | Ki (murine CD38 [1]; Skeletal muscle): 93.3 µM | Ki (murine CD38 [1]; Spleen): 78.1 µM | Ki (murine CD38 [2]; Brain): 83.5 µM | Ki (murine CD38 [2]; Heart): 80.6 µM | Ki (murine CD38 [2]; Ileum): 79.9 µM | Ki (murine CD38 [2]; Kidney): 84.7 µM | Ki (murine CD38 [2]; Liver): 77.3 µM | Ki (murine CD38 [2]; Lung): 82.5 µM | Ki (murine CD38 [2]; Skeletal muscle): 83 µM | Ki (murine CD38 [2]; Spleen): 70.5 µM | Ki (CD38; span over all enzyme sources): 57.1 to 93.3 µM
SMILES: O=c1[nH]c(=O)c2[nH]c(=O)[nH]c2[nH]1 [sUA, uric acid]
Intracellular NAD+ (A549 cells): boosted intracellular NAD^+

IC50 (murine CD38 [1]; [3]): 4470 µM | IC50 (murine CD38 [2]; [3]): 2200 µM
SMILES: O=C(O)c1nc(=O)[nH]c(=O)[nH]1 [OA, oxonic acid, reference compound]

Source: publication PMC11554305, “Functional identification of soluble uric acid as an endogenous inhibitor of CD38” (eLife, 2024)
